# Data as given in PubChem BioAssay (NCI).
#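 96-well plates; 48 h exposure; 5 concentrations. Endpoints by linear interpolation between flanking doses. Not reached: highest tested concentration assigned. Abbreviation: GI50, concentration required for 50% inhibition of growth. TGI marks complete inhibition of growth.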
# Legend:
# Assay in all cases: inhibition of tumour cell growth, NCI panel, 48 h
# [1] = test system: A549 NSCLC
# [2] = test system: DU-145 prostate
# [3] = test system: RPMI-8226 leukemia
# [4] = test system: SF-295 CNS
# [5] = test system: NCI-H522 lung
# [6] = test system: T-47D breast
# [7] = test system: MALME-3M melanoma
# [8] = test system: 786-0 renal
# [9] = test system: NCI-H226 lung
# [10] = test system: UO-31 renal
# [11] = test system: OVCAR-5 ovarian
# [12] = test system: HS 578T breast
# [13] = test system: SF-268 CNS
# [14] = test system: CCRF-CEM leukemia
# [15] = test system: COLO 205 colon
# [16] = test system: K-562 leukemia
# [17] = test system: U251 CNS
# [18] = test system: SN12C renal
# [19] = test system: MOLT-4 leukemia
# [20] = test system: MDA-MB-231 breast
# [21] = test system: A498 renal
# [22] = test system: HOP-92 NSCLC
# [23] = test system: HL-60(TB) leukemia
# [24] = test system: SF-539 CNS
# [25] = test system: M14 melanoma
# [26] = test system: SK-MEL-2 melanoma
# [27] = test system: TK-10 renal
# [28] = test system: CAKI-1 renal
smiles,measurement,setting,value
O=C(c1ccc(Cl)cc1)c1no[n+]([O-])c1C(=O)c1ccc(Cl)cc1,GI50,[1],23.5 µM
same,TGI,[1],62.1 µM
same,GI50,[2],17 µM
same,TGI,[2],31 µM
same,GI50,[3],4.6 µM
same,TGI,[3],24.4 µM
same,GI50,[4],14.3 µM
same,TGI,[4],29 µM
same,GI50,[5],1.74 µM
same,TGI,[5],3.37 µM
same,GI50,[6],13.1 µM
same,TGI,[6],43.1 µM
same,GI50,[7],2.18 µM
same,TGI,[7],4.2 µM
same,GI50,[8],3.97 µM
same,TGI,[8],13.7 µM
same,GI50,[9],15.8 µM
same,TGI,[9],31.1 µM
same,GI50,[10],1.64 µM
same,TGI,[10],3.2 µM
same,GI50,[11],16.5 µM
same,TGI,[11],35.3 µM
same,GI50,[12],21.2 µM
same,TGI,[12],68.2 µM
same,GI50,[13],14.1 µM
same,TGI,[13],33.2 µM
same,GI50,[14],2 µM
same,TGI,[14],4.75 µM
same,GI50,[15],14.6 µM
same,TGI,[15],34.3 µM
same,GI50,[16],5.32 µM
same,TGI,[16],31.8 µM
same,GI50,[17],15.8 µM
same,TGI,[17],30.2 µM
same,GI50,[18],13 µM
same,TGI,[18],28.3 µM
same,GI50,[19],4.73 µM
same,TGI,[19],22.1 µM
same,GI50,[20],10.9 µM
same,TGI,[20],26.8 µM
same,GI50,[21],16.4 µM
same,TGI,[21],36.4 µM
same,GI50,[22],1.77 µM
same,TGI,[22],4.26 µM
same,GI50,[23],6.06 µM
same,TGI,[23],20.7 µM
same,GI50,[24],3.24 µM
same,TGI,[24],8.17 µM
same,GI50,[25],13.3 µM
same,TGI,[25],27.2 µM
same,GI50,[26],14.9 µM
same,TGI,[26],28.7 µM
same,GI50,[27],15 µM
same,TGI,[27],28.3 µM
same,GI50,[28],4.58 µM
same,TGI,[28],12.2 µM
